Experimental findings from US9745283B2, “Uracil derivatives as AXL and c-MET kinase inhibitors” (priority 2011, dated 2017) are described below.

Broadly, the IC50 is the midpoint of a concentration-inhibition curve.

Experiment [1] has as its target recombinant human baculovirus-expressed cMET (Homo sapiens (Human), UniProt P08581). In words: C-MET Kinase Assay (HTRF KinEASE). In kind it is biochemical. Particulars: average of two or more determinations; read-out: c-MET IC50. The method in brief: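 HTRF KinEASE format with recombinant human baculovirus-expressed cMET at 8 ng/mL, biotinylated peptide at 0.1 μM and ATP at 0.02 μM. IC50 came from percent control activity versus log concentration, fitted by nonlinear regression to a variable-slope sigmoidal equation with bottom fixed at 0 and top at 100.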

In experiment [2] the target is recombinant human baculovirus-expressed AXL (Homo sapiens (Human), UniProt P30530). In words: AXL Kinase Assay (HTRF KinEASE). It is filed as biochemical. Particulars: average of two or more determinations. For orientation: In TR-FRET formats the signal depends on donor and acceptor labels being close together.

As to `COc1ccc2c(Oc3ccc(NC(=O)c4nn(C(C)C)c(=O)n(-c5ccc(F)cc5)c4=O)cc3F)ccnc2c1` [Example 111, 4-(4-Fluorophenyl)-2-isopropyl-3,5-dioxo-2,3,4,5-tetrahydro-[1,2,4]triazine-6-carboxylic acid [3-fluoro-4-(7-methoxyquinolin-4-yloxy)-phenyl]-amide], the IC50 in experiment [1] was 10 to 100 nM; in experiment [2], less than 10 nM.

For `COc1cc2nccc(Oc3ccc(NC(=O)c4nn(CC(C)=O)c(=O)n(-c5ccc(F)cc5)c4=O)cc3F)c2cc1OC` [Example 112, 4-(4-Fluorophenyl)-3,5-dioxo-2-(2-oxo-propyl)-2,3,4,5-tetrahydro-[1,2,4]triazine-6-carboxylic acid [4-(6,7-dimethoxyquinolin-4-yloxy)-3-fluorophenyl]-amide], the half-inhibitory concentration (IC50) in experiment [1] is 10 to 100 nM; in experiment [2], less than 10 nM.

Take `C#CCn1nc(C(=O)Nc2ccc(Oc3ccnc4cc(OC)c(OC)cc34)c(F)c2)c(=O)n(-c2ccc(F)cc2)c1=O` [Example 113, 4-(4-Fluoro-phenyl)-3,5-dioxo-2-prop-2-ynyl-2,3,4,5-tetrahydro-[1,2,4]triazine-6-carboxylic acid [4-(6,7-dimethoxy-quinolin-4-yloxy)-3-fluoro-phenyl]-amide]: the IC50 in experiment [1] and in experiment [2] was less than 10 nM each time.

In the case of `C#CCn1c(=O)c(C(=O)Nc2ccc(Oc3ccnc4cc(OC)c(OC)cc34)c(F)c2)nn(C)c1=O` [Example 115, 2-Methyl-3,5-dioxo-4-prop-2-ynyl-2,3,4,5-tetrahydro-[1,2,4]triazine-6-carboxylic acid [4-(6,7-dimethoxy-uinolin-4-yloxy)-3-fluoro-phenyl]-amide], the half-maximal inhibitory concentration (IC50) in experiment [1] is 10 to 100 nM; in experiment [2] it was less than 10 nM.

Regarding `COc1cc2nccc(Oc3ccc(NC(=O)c4nn(C)c(=O)n(CC5CC5)c4=O)cc3F)c2cc1OC` [Example 125, 4-Cyclopropylmethyl-2-methyl-3,5-dioxo-2,3,4,5-tetrahydro-[1,2,4]triazine-6-carboxylic acid [4-(6,7-dimethoxy-quinolin-4-yloxy)-3-fluoro-phenyl]-amide], the results for the concentration for half-maximal inhibition (IC50) in experiment [1] and in experiment [2] were 10 to 100 nM and less than 10 nM, respectively.

On to `COc1cc2nccc(Oc3ccc(NC(=O)c4nn(C)c(=O)n(CC5CCOCC5)c4=O)cc3F)c2cc1OC` [Example 126, 2-Methyl-3,5-dioxo-4-(tetrahydro-pyran-4-ylmethyl)-2,3,4,5-tetrahydro-[1,2,4]triazine-6-carboxylic acid [4-(6,7-dimethoxy-quinolin-4-yloxy)-3-fluoro-phenyl]-amide], for which the figures for the IC50 in experiment [1] and in experiment [2] were 101 to 1000 nM and less than 10 nM, respectively.

Consider `COc1cc2nccc(Oc3ccc(NC(=O)c4nn(C)c(=O)n(CC(C)C)c4=O)cc3F)c2cc1OC` [Example 127, 4-Isobutyl-2-methyl-3,5-dioxo-2,3,4,5-tetrahydro-[1,2,4]triazine-6-carboxylic acid [4-(6,7-dimethoxy-quinolin-4-yloxy)-3-fluoro-phenyl]-amide], for which the IC50 in experiment [1] was 10 to 100 nM; in experiment [2] it was less than 10 nM.

With `COc1cc2nccc(Oc3ccc(NC(=O)c4nn(C)c(=O)n(CC5CCC5)c4=O)cc3F)c2cc1OC` [Example 128, 4-Cyclobutylmethyl-2-methyl-3,5-dioxo-2,3,4,5-tetrahydro-[1,2,4]triazine-6-carboxylic acid [4-(6,7-dimethoxy-quinolin-4-yloxy)-3-fluoro-phenyl]-amide], the values for the IC50 in experiment [1] and in experiment [2] were 10 to 100 nM and less than 10 nM, respectively.

For the compound `COc1cc2nccc(Oc3ccc(NC(=O)c4nn(C)c(=O)n(CC(C)(C)C)c4=O)cc3F)c2cc1OC` [Example 129, 4-(2,2-Dimethylpropyl)-2-methyl-3,5-dioxo-2,3,4,5-tetrahydro-[1,2,4]triazine-6-carboxylic acid [4-(6,7-dimethoxyquinolin-4-yloxy)-3-fluorophenyl]-amide], the half-maximal inhibitory concentration (IC50) in experiment [1] is 10 to 100 nM; in experiment [2], less than 10 nM.

For the compound `Cn1cc(C(=O)Nc2ccc(Oc3ccnc4cc5c(cc34)OCO5)c(F)c2)c(=O)n(-c2ccc(F)cc2)c1=O` [Example 131, 3-(4-Fluoro-phenyl)-1-methyl-2,4-dioxo-1,2,3,4-tetrahydro-pyrimidine-5-carboxylic acid [4-([1,3]dioxolo[4,5-g]quinolin-8-yloxy)-3-fluoro-phenyl]-amide], the IC50 was 10 to 100 nM in experiment [1] and less than 10 nM in experiment [2].

For the compound `CCn1cc(C(=O)Nc2ccc(Oc3ccnc4cc(OC)c(OC)cc34)cc2OC)c(=O)n(-c2ccc(F)cc2)c1=O` [Example 143, 1-Ethyl-3-(4-fluorophenyl)-2,4-dioxo-1,2,3,4-tetrahydropyrimidine-5-carboxylic acid [4-(6,7-dimethoxy-quinolin-4-yloxy)-2-methoxyphenyl]-amide], the IC50 in experiment [1] and in experiment [2] was less than 10 nM each time.

For `COc1cc(Oc2ccnc3cc(OC)c(OC)cc23)ccc1NC(=O)c1cn(C)c(=O)n(-c2ccc(F)cc2)c1=O` [Example 144, 1-Methyl-3-(4-fluoro-phenyl)-2,4-dioxo-1,2,3,4-tetrahydro-pyrimidine-5-carboxylic acid [4-(6,7-dimethoxy-quinolin-4-yloxy)-2-methoxy-phenyl]-amide], the IC50 in experiment [1] is 10 to 100 nM; in experiment [2], less than 10 nM.

With `COc1cc(Oc2ccnc3cc(OC)c(OC)cc23)ccc1NC(=O)c1cn(C(C)C)c(=O)n(-c2ccc(F)cc2)c1=O` [Example 145, 1-Isopropyl-3-(4-fluoro-phenyl)-2,4-dioxo-1,2,3,4-tetrahydro-pyrimidine-5-carboxylic acid [4-(6,7-dimethoxy-quinolin-4-yloxy)-2-methoxy-phenyl]-amide], the IC50 in experiment [1] is 10 to 100 nM; in experiment [2], less than 10 nM.

Turning to `COc1cc2nccc(Oc3ccc(NC(=O)c4cn(C)c(=O)n(-c5ccc(F)cc5)c4=O)c(F)c3F)c2cc1OC` [Example 146, 1-Methyl-3-(4-fluorophenyl)-2,4-dioxo-1,2,3,4-tetrahydro-pyrimidine-5-carboxylic acid [4-(6,7-dimethoxy-quinolin-4-yloxy)-2,3-difluoro-phenyl]-amide], the IC50 in experiment [1] and in experiment [2] was less than 10 nM each time.

For the compound `CCn1cc(C(=O)Nc2ccc(Oc3ccnc4cc(OC)c(OC)cc34)c(F)c2F)c(=O)n(-c2ccc(F)cc2)c1=O` [Example 147, 1-Ethyl-3-(4-fluoro-phenyl)-2,4-dioxo-1,2,3,4-tetrahydro-pyrimidine-5-carboxylic acid [4-(6,7-dimethoxy-quinolin-4-yloxy)-2,3-difluoro-phenyl]-amide], the IC50 in experiment [1] and in experiment [2] was less than 10 nM in each case.

For the compound `COc1cc2nccc(Oc3ccc(NC(=O)c4c[nH]c(=O)n(-c5ccc(F)cc5)c4=O)cc3C)c2cc1OC` [Example 149, 3-(4-Fluoro-phenyl)-2,4-dioxo-1,2,3,4-tetrahydro-pyrimidine-5-carboxylic acid [4-(6,7-dimethoxy-quinolin-4-yloxy)-3-methyl-phenyl]-amide], the IC50 in experiment [1] and in experiment [2] was less than 10 nM throughout.

Take `COc1cc2nccc(Oc3ccc(NC(=O)c4c[nH]c(=O)n(-c5ccc(F)cc5)c4=O)cc3OC)c2cc1OC` [Example 150, 3-(4-Fluoro-phenyl)-2,4-dioxo-1,2,3,4-tetrahydro-pyrimidine-5-carboxylic acid [4-(6,7-dimethoxy-quinolin-4-yloxy)-3-methoxy-phenyl]-amide]: the half-inhibitory concentration (IC50) in experiment [1] is 10 to 100 nM; in experiment [2], less than 10 nM.

In the case of `CCn1cc(C(=O)Nc2ccc(Oc3ccnc4cc(OC)c(OC)cc34)c(OC)c2)c(=O)n(-c2ccc(F)cc2)c1=O` [Example 151, 1-Ethyl-3-(4-fluoro-phenyl)-2,4-dioxo-1,2,3,4-tetrahydro-pyrimidine-5-carboxylic acid [4-(6,7-dimethoxy-quinolin-4-yloxy)-3-methoxy-phenyl]-amide], the values for the IC50 in experiment [1] and in experiment [2] were 10 to 100 nM and less than 10 nM, respectively.

As to `CCn1cc(C(=O)Nc2ccc(Oc3ccnc4cc(OC)c(OC)cc34)c(C(F)(F)F)c2)c(=O)n(-c2ccc(F)cc2)c1=O` [Example 159, 1-Ethyl-3-(4-fluoro-phenyl)-2,4-dioxo-1,2,3,4-tetrahydro-pyrimidine-5-carboxylic acid [4-(6,7-dimethoxy-quinolin-4-yloxy)-3-trifluoromethyl-phenyl]-amide], the IC50 in experiment [1] was 10 to 100 nM; in experiment [2], less than 10 nM.

As for `CCn1nc(C(=O)Nc2ccc(Oc3ccnc4cc(OC)ccc34)c(F)c2)c(=O)n(-c2ccc(F)cc2)c1=O` [Example 171, 2-Ethyl-4-(4-fluoro-phenyl)-3,5-dioxo-2,3,4,5-tetrahydro-1,2,4-triazine-6-carboxylic acid [3-fluoro-4-(7-methoxy-quinolin-4-yloxy)-phenyl]-amide], the IC50 in experiment [1] and in experiment [2] was less than 10 nM throughout.
